Values of other authors, collected in patent publication US8044020B2, “Pharmaceutical compositions and methods for insulin treatment” (CPEX Pharmaceuticals, Inc., priority 2003, dated 2011).

Conditions: beagles; previously determined (Hseih, 1993)

SMILES: O=C1CCCCCCCCCCCCCCO1 [Cyclopentadecanolide]
- effect on migration of insulin through the nasal mucosa: facilitates the migration of insulin through the nasal mucosa
